# Test results reported in article PMC5554137, “Evaluation of novel factor Xa inhibitors from Oxya chinensis sinuosa with anti-platelet aggregation activity” (Scientific Reports, 2017).
# Experiments:
# [1] = target: Streptokinase (Homo sapiens); test: Chromogenic substrate assay, Ki determination, Streptokinase; type: biochemical; details: substrate S-2251
# Protocol: (§1) The inhibitor (I) constants (Ki) were determined for the inhibition of a series of human enzymes (FXa, thrombin, trypsin, plasmin, protein Ca, streptokinase, tPA, and urokinase) by each compound. Chromogenic substrate assays were performed using a Labsystems IEMS (Cergy Pontoise, France) microtiter plate reader. In each assay, the compound was tested at a minimum of seven concentrations in duplicate to obtain an inhibition curve. Assays were performed according to the following general procedure. In a 96-well microtiter plate, 25 μL of compound, inhibitor solution or buffer was added to 50 μL of substrate. A volume of 25 μL of enzyme solution was added just before the plate was placed in the microtiter plate reader for 1 h at 37 °C. The hydrolysis of the substrate yields p-nitroaniline, which was continuously monitored spectrophotometrically at 405 nm. Data were collected and the initial rate of substrate hydrolysis [Vo (mOD/minute)] was calculated. Following Michaelis-Menten kinetics, the affinity of the enzyme for the substrate, in the absence of the inhibitor (Km) and in the presence of an inhibitor (Kp), was determined to be the negative inverse x-intercept of Lineweaver–Burk plots. The dissociation constant for inhibition (Ki) was calculated using the following equation: Ki = (Km·[I])/(Kp − Km) as described by Williams and Morrison[40].
# [2] = tested on: C57BL/6 mice; test: In vivo clotting time (aPTT after four daily injections); set-up: species or system mouse; details: daily intravenous injection for four consecutive days
# Protocol: (§2) To evaluate the effects of compounds 1–5 on coagulation parameters ex vivo, we measured the influence of the isolated compounds on activated partial thromboplastin time (aPTT) and prothrombin time (PT). […] The average circulating blood volume for mice is 72 mL/kg[21]. Because the average weight of mice used in this study was 27 g and the average blood volume was 2 mL, the dose of compounds 1–5 (38.6, 77.2, or 193.1 µg/kg) equaled a peripheral blood concentration of approximately 1, 2, and 5 µM, respectively.
# Figure 4 Effects of compounds 1–4 on clotting and bleeding time. (A) One hour after administration (intravenous injection) of compound 1 (white box), 2 (light gray box), 3 (dark gray box), or 4 (black box), blood was collected from the mice and platelet-poor plasma (PPP) was obtained by centrifugation at 2,000 × g for 10 min at room temperature to test ex vivo activated partial thromboplastin time (aPTT). (B) Each group received a daily intravenous injection of the indicated compound for four consecutive days. Fifteen minutes after the last administration, blood samples were collected and in vivo aPTT was measured. […] Accumulated bleeding times (including periods of re-bleeding) were recorded. […] Data are presented as means ± SD of three independent experiments. *p < 0.05 vs. vehicle alone, analyzed by one-way ANOVA, followed by Tukey multiple comparison testing.
# [3] = target: Plasmin (Homo sapiens, UniProt P00747); test: Chromogenic substrate assay, Ki determination, Plasmin; type: biochemical; details: substrate S-2251
# Protocol: as §1
# [4] = tested on: mouse platelet-rich plasma (PRP); test: In vitro platelet aggregation induced by thrombin; type: cell-based; details: thrombin 3 U/mL
# Protocol: (§3) To study the effects of compounds 1–5 on platelet aggregation, we used mouse platelet-rich plasma (PRP) induced with various agonists as an in vitro model.
# (§4) Figure 5 Effects of compounds 1–4 on agonist-induced platelet aggregation in vitro. Platelet-rich plasma (PRP) was preincubated for 5 min with different concentrations of compounds 1–4, or vehicle. Platelet aggregation was initiated with ADP (A, 10 µM), U46619 (B, 6 µM), or thrombin (C, 3 U/mL). D = 0.2% DMSO used as the vehicle control. Data are presented as means ± SD of three independent experiments. ^* p < 0.05 vs. vehicle alone, analyzed by one-way ANOVA, followed by Tukey multiple comparison testing.
# (§5) The in vitro platelet aggregation assay was performed according to a previously reported method, [39]. Platelet rich plasma (PRP) was incubated with the indicated concentration of each compound in DMSO for 1, 3, 5, or 10 min. Samples were subsequently stimulated by ADP (10 μM), U46619 (6 μM), or thrombin (3 U/mL). Platelet aggregation was recorded using an aggregometer (Chronolog, Havertown, PA, USA).
# [5] = target: Protein Ca (Homo sapiens, UniProt P04070); test: Chromogenic substrate assay, Ki determination, Protein Ca; type: biochemical; details: substrate S-2366
# Protocol: as §1
# [6] = target: Urokinase (Homo sapiens, UniProt P00749); test: Chromogenic substrate assay, Ki determination, Urokinase; type: biochemical; details: substrate S-2444
# Protocol: as §1
# [7] = tested on: C57BL/6 mice; test: Ex vivo coagulation assay, aPTT; type: in vivo, mouse; details: intravenous, 38 to 193 µg/kg
# Protocol: as §2
# Figure 4 Effects of compounds 1–4 on clotting and bleeding time. […] Fifteen minutes after the last administration, blood samples were collected and in vivo aPTT was measured. […] Accumulated bleeding times (including periods of re-bleeding) were recorded. […] Data are presented as means ± SD of three independent experiments. *p < 0.05 vs. vehicle alone, analyzed by one-way ANOVA, followed by Tukey multiple comparison testing.
# Fifteen min after the administration of each compound or saline, blood was sampled, and plasma was obtained by centrifuging at 2,000 × g for 10 min at room temperature in order to measure prothrombin time (PT) and activated partial thromboplastin time (aPTT). The aPTT and PT were determined using a Thrombotimer (Behnk Elektronik, Norderstedt, Germany), according to the manufacturer’s instructions and as described previously. […] The clotting times were recorded. […]
# [8] = tested on: mouse platelet-rich plasma (PRP); test: In vitro platelet aggregation induced by ADP; type: cell-based; details: ADP 10 µM
# Protocol: as §3, §4, §5
# [9] = target: Trypsin; test: Chromogenic substrate assay, Ki determination, Trypsin; type: biochemical, human; details: substrate S-2222
# Protocol: as §1
# [10] = tested on: mouse platelet-rich plasma (PRP); test: In vitro platelet aggregation induced by U46619; type: cell-based; details: U46619 6 µM
# Protocol: as §3, §4, §5
# [11] = target: T1, FXa (Homo sapiens, UniProt P00742); test: Chromogenic substrate assay, Ki determination, Factor Xa; type: biochemical; details: substrate S-2765 (Table 3); mean ± SD (n = 5)
# T1 construct: purchased Haematologic Technologies (Essex Junction, VT, USA)
# Protocol: as §1
# [12] = target: T2, α-Thrombin (Homo sapiens, UniProt P00734); test: Chromogenic substrate assay, Ki determination, α-Thrombin; type: biochemical; details: substrate S-2238
# T2 construct: FXa converts prothrombin to thrombin; purchased Haematologic Technologies (Essex Junction, VT, USA)
# Protocol: as §1
# [13] = target: tPA (Homo sapiens, UniProt P00750); test: Chromogenic substrate assay, Ki determination, tPA; type: biochemical; details: substrate S-2228
# Protocol: as §1
# [14] = tested on: platelet aggregation; set-up: method as in PMID 20139357; details: cited from earlier work
# [15] = tested on: bleeding time models; set-up: method as in PMID 20139357, PMID 15748242; details: antithrombotic doses below the ED50 required for antithrombotic efficacy; cited from earlier work
# [16] = tested on: rat; set-up: method as in PMID 20139357, PMID 15748242; details: higher doses, rat tail-bleeding time model; cited from earlier work
# [17] = target: thrombin (Homo sapiens, UniProt P00734); set-up: method as in PMID 20139357; details: cited from earlier work
# [18] = tested on: C57BL/6 mice; test: FeCl3-induced arterial thrombosis mouse model; type: in vivo; details: FeCl3 injury, tirofiban 0.2 or 0.4 mg/kg (dose for this value not stated)
# T1 sequence (P00742 235-488 limits assumed): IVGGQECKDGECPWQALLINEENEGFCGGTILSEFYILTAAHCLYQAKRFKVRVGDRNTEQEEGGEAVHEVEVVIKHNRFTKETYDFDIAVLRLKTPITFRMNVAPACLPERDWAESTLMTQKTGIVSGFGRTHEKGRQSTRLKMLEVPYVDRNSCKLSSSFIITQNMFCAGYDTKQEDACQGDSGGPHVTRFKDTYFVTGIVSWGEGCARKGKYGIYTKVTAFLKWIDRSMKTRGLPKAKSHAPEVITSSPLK
# T1 sequence (P00742 41-179 limits assumed): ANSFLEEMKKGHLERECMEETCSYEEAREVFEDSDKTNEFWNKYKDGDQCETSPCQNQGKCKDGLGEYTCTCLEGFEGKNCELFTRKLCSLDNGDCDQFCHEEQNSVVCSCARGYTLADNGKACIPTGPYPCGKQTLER
# Chain of Protein Ca (P04070 212-461 limits assumed): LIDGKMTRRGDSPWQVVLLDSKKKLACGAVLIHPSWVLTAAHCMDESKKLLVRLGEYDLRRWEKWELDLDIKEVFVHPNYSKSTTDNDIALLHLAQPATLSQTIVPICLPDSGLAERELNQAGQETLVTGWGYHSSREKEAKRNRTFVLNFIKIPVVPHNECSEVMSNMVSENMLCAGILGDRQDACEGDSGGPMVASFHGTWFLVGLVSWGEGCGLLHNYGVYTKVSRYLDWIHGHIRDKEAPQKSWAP
# Chain of Protein Ca (P04070 43-197 limits assumed): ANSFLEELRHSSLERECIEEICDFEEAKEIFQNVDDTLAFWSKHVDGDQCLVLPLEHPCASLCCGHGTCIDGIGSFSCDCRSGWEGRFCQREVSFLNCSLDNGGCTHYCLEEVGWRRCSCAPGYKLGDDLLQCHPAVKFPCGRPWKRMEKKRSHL
# Chain of Streptokinase (Homo sapiens) (P00747 581-810 limits assumed): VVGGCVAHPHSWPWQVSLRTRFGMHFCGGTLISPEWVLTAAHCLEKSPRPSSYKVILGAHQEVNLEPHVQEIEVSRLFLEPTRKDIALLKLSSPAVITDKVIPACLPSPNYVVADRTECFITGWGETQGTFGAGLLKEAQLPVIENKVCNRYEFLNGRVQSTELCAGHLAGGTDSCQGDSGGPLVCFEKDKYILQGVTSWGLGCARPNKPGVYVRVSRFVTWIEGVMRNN
# Chain of Plasmin (P00747 581-810 limits assumed): as above
# Chain of Plasmin (P00747 97-580 limits assumed): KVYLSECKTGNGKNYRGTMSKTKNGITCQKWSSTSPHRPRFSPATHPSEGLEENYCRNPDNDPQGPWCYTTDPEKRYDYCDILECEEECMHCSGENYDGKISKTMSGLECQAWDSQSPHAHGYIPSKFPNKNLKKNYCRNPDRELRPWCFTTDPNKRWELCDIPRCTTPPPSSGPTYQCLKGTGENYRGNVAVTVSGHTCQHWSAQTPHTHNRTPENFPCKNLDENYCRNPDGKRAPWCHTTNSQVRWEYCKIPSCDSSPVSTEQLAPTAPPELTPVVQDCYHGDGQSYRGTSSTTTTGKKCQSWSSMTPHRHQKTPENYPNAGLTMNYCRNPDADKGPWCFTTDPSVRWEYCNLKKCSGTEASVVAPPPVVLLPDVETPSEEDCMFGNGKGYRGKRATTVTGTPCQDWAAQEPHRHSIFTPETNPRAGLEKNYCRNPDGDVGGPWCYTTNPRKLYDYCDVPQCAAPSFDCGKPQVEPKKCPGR
# Chain of tPA (P00750 36-562): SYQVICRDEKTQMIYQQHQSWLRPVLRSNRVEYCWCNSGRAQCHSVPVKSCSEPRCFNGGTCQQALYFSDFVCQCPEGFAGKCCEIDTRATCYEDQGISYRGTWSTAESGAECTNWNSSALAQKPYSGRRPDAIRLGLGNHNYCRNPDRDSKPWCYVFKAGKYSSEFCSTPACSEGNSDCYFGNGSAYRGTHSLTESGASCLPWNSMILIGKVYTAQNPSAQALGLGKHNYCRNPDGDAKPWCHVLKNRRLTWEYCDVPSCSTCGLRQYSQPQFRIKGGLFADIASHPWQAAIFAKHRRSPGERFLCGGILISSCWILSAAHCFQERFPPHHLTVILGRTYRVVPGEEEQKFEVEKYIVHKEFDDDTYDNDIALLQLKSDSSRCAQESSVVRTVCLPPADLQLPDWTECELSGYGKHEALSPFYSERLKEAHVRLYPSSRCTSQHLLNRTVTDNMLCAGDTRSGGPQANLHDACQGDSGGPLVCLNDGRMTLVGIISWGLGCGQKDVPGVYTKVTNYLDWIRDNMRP
structure (smiles),measurement,setting,value
"CC(=O)N/C=C/c1ccc2c(c1)O[C@H](c1ccc(O)c(O)c1)[C@@H](NC(C)=O)O2 [Compound 5, (2 R,3 S)-2-(3′,4′-dihydroxyphenyl)-3-acetylamino-7-(N-acetyl-2″-aminethylene)-1,4-benzodioxane]",Ki,[1],> 250 µM
same,blood clotting time in vivo (anticoagulant effect),[2],not
same,Ki,[3],> 250 µM
same,thrombin-induced platelet aggregation,[4],did not affect
same,Ki,[5],> 250 µM
same,Ki,[6],> 250 µM
same,"activated partial thromboplastin time (aPTT), ex vivo",[7],did not affect
same,platelet aggregation induced by ADP,[8],did not affect
same,Ki,[9],> 250 µM
same,platelet aggregation induced by U46619,[10],did not affect
same,Ki,[11],> 250 µM
same,Ki,[12],> 250 µM
same,Ki,[13],> 250 µM
O=C(NC[C@H]1CN(c2ccc(N3CCOCC3=O)cc2)C(=O)O1)c1ccc(Cl)s1 [rivaroxaban],"platelet aggregation induced by ADP, thrombin, or U46619",[14],did not affect
same,bleeding times,[15],not significantly affected
same,bleeding times,[16],dose-dependently prolonged
same,generation of thrombin,[17],prolonged
CCCCS(=O)(=O)N[C@@H](Cc1ccc(OCCCCC2CCNCC2)cc1)C(=O)O [tirofiban],time to growth of large thrombi,[18],61.1 ± 5.1 min
